# Results taken from US11524968B2, “Heterocyclic compound as a protein kinase inhibitor” (HK inno.N Corporation, priority 2017, dated 2022).
# Target: JAK1 (Homo sapiens (Human), UniProt P23458)
# Assay: Analysis of JAK1 activity inhibition ability (ADP-Glo Kinase Assay)
# Type: biochemical
# Settings: JAK1 enzyme, ADP-Glo luminescence, ATP 250 uM, IRS-itide substrate, 30° C. 40 minutes; read-out: IC50
# In short: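 ADP-Glo luminescence read-out of ADP production, with IC50 taken as the concentration halving JAK1 activity relative to control. Enzyme was incubated 40 min at 30 °C with compound, IRS-itide (40 ng/mL) and ATP (250 uM), concentrations as prepared in pH 7.5 Tris-HCl/MgCl2/BSA/DTT buffer.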
# Sequence of JAK1 (P23458 whole entry): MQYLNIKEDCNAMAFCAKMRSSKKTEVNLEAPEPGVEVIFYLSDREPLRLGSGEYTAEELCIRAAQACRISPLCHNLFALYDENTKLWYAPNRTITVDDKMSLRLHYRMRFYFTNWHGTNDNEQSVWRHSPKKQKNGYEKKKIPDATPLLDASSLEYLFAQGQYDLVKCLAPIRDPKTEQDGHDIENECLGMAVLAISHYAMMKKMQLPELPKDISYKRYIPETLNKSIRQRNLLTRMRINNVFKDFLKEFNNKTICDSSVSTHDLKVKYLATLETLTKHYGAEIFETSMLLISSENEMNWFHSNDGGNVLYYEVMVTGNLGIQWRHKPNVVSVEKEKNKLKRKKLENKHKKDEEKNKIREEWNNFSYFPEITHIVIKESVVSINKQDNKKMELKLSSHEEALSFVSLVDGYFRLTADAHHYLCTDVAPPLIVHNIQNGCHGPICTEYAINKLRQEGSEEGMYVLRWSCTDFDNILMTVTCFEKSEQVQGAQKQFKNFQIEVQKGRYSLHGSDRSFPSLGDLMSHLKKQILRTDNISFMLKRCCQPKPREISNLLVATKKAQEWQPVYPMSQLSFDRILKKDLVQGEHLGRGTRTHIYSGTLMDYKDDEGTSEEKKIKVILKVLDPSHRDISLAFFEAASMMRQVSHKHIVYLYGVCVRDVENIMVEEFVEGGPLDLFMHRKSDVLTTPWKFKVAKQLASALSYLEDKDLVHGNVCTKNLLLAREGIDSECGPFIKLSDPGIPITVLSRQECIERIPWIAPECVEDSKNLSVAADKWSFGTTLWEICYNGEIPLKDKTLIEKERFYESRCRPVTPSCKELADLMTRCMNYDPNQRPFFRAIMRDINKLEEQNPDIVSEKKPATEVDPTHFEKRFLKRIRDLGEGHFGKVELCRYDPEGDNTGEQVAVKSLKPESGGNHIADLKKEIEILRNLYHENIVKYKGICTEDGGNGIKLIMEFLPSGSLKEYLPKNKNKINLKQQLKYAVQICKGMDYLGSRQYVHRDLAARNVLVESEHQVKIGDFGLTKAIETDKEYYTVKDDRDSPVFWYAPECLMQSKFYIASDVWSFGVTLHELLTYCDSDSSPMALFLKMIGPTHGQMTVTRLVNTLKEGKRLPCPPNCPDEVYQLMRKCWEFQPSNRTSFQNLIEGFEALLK
row,SMILES,IC50 [nM]
1,"CCS(=O)(=O)Nc1ccc(-c2cc(NC(=O)C3CC3)nc3[nH]cnc23)cc1 [Example 207, N-(7-(4-(ethylsulfonamido)phenyl)-3H-imidazo[4,5-b]pyridin-5-yl)cyclopropanecarboxamide]",> 200
2,"O=C(Nc1nc(-c2ccc(NS(=O)(=O)c3ccc(F)c(F)c3)cc2)c2nc[nH]c2n1)C1CC1 [Example 208, N-(6-(4-((3,4-difluorophenyl)sulfonamido)phenyl)-9H-purin-2-yl)cyclopropanecarboxamide]",> 200
3,"CCS(=O)(=O)Nc1ccc(-c2nc(NC(=O)C3CC3)nc3[nH]cnc23)cc1 [Example 209, N-(6-(4-(ethylsulfonamido)phenyl)-9H-purin-2-yl)cyclopropanecarboxamide]",> 200
4,"N#CCCCS(=O)(=O)Nc1ccc(-c2nc(NC(=O)C3CC3)nc3[nH]cnc23)cc1 [Example 210, N-(6-(4-((3-cyanopropyl)sulfonamido)phenyl)-9H-purin-2-yl)cyclopropanecarboxamide]",> 200
5,"O=C(Nc1nc(-c2ccc(NS(=O)(=O)CCCC(F)(F)F)cc2)c2nc[nH]c2n1)C1CC1 [Example 211, N-(6-(4-((4,4,4-trifluorobutyl)sulfonamido)phenyl)-9H-purin-2-yl)cyclopropanecarboxamide]",> 200
6,"CCCS(=O)(=O)N1CC=C(c2cc(NC(=O)C3CC3)nc3[nH]ccc23)C1 [Example 212, N-(4-(1-(propylsulfonyl)-2,5-dihydro-1H-pyrrol-3-yl)-1H-pyrrolo[2,3-b]pyridin-6-yl)cyclopropanecarboxamide]",> 200
7,"N#CC1(CS(=O)(=O)N2CC=C(c3cc(NC(=O)C4CC4)nc4[nH]ccc34)C2)CC1 [Example 213, N-(4-(1-(((1-cyanocyclopropyl)methyl)sulfonyl)-2,5-dihydro-1H-pyrrol-3-yl)-1H-pyrrolo[2,3-b]pyridin-6-yl)cyclopropanecarboxamide]",> 200
8,"N#CC1CN(S(=O)(=O)Nc2ccc(-c3cc(NC(=O)C4CC4)nc4[nH]ccc34)cc2)C1 [Example 221, N-(4-(4-((3-cyanoazetidine)-1-sulfonamido)phenyl)-1H-pyrrolo[2,3-b]pyridin-6-yl)cyclopropanecarboxamide]",20 to 200
9,"CC(C)N(C)S(=O)(=O)Nc1ccc(-c2cc(NC(=O)C3CC3)nc3[nH]ccc23)cc1 [Example 222, N-(4-(4-((N-isopropyl-N-methylsulfamoyl)amino)phenyl)-1H-pyrrolo[2,3-b]pyridin-6-yl)cyclopropanecarboxamide]",20 to 200
10,"COCCN(C)S(=O)(=O)Nc1ccc(-c2cc(NC(=O)C3CC3)nc3[nH]ccc23)cc1 [Example 223, N-(4-(4-((N-(2-methoxyethyl)-N-methylsulfamoyl)amino)phenyl)-1H-pyrrolo[2,3-b]pyridin-6-yl)cyclopropanecarboxamide]",20 to 200
11,"Cc1cc(NS(=O)(=O)NCC(F)(F)F)ccc1-c1cc(NC(=O)C2CC2)nc2[nH]ccc12 [Example 227, N-(4-(2-methyl-4-((N-(2,2,2-trifluoroethyl)sulfamoyl)amino)phenyl)-1H-pyrrolo[2,3-b]pyridin-6-yl)cyclopropanecarboxamide]",20 to 200
12,"O=C(Nc1cc(C2=CCN(S(=O)(=O)NCC(F)(F)F)CC2)c2cc[nH]c2n1)C1CC1 [Example 232, N-(4-(1-(N-(2,2,2-trifluoroethyl)sulfamoyl)-1,2,3,6-tetrahydropyridin-4-yl)-1H-pyrrolo[2,3-b]pyridin-6-yl)cyclopropanecarboxamide]",20 to 200
13,"CN(CC(F)(F)F)S(=O)(=O)N1CC=C(c2cc(NC(=O)C3CC3)nc3[nH]ccc23)CC1 [Example 233, N-(4-(1-(N-methyl-N-(2,2,2-trifluoroethyl)sulfamoyl)-1,2,3,6-tetrahydropyridin-4-yl)-1H-pyrrolo[2,3-b]pyridin-6-yl)cyclopropanecarboxamide]",20 to 200
14,"O=C(Nc1cc(C2=CCN(S(=O)(=O)N3CCOCC3)CC2)c2cc[nH]c2n1)C1CC1 [Example 234, N-(4-(1-(morpholinosulfonyl)-1,2,3,6-tetrahydropyridin-4-yl)-1H-pyrrolo[2,3-b]pyridin-6-yl)cyclopropanecarboxamide]",20 to 200
15,"O=C(Nc1nc(-c2ccc(NS(=O)(=O)N3CCOCC3)cc2)c2cc[nH]c2n1)C1CC1 [Example 235, N-(4-(4-(morpholine-4-sulfonamido)phenyl)-7H-pyrrolo[2,3-d]pyrimidin-2-yl)cyclopropanecarboxamide]",20 to 200
16,"CN(C)S(=O)(=O)Nc1ccc(-c2nc(NC(=O)C3CC3)nc3[nH]ccc23)cc1 [Example 236, N-(4-(4-((N,N-dimethylsulfamoyl)amino)phenyl)-7H-pyrrolo[2,3-d]pyrimidin-2-yl)cyclopropanecarboxamide]",20 to 200
17,"CC1CN(S(=O)(=O)Nc2ccc(-c3nc(NC(=O)C4CC4)nc4[nH]ccc34)cc2)CC(C)O1 (stereo not shown) [Example 237, N-(4-(4-((2,6-dimethylmorpholine)-4-sulfonamido)phenyl)-7H-pyrrolo[2,3-d]pyrimidin-2-yl)cyclopropanecarboxamide]",> 200
18,"O=C(Nc1nc(-c2ccc(NS(=O)(=O)N3CCOCC3)cc2)c2nc[nH]c2n1)C1CC1 [Example 238, N-(6-(4-(morpholine-4-sulfonamido)phenyl)-9H-purin-2-yl)cyclopropanecarboxamide]",> 200
19,"N#CCC(=O)Nc1ccc(-c2cc(NC(=O)C3CC3)nc3[nH]ccc23)cc1 [Example 239, N-(4-(4-(2-cyanoacetamido)phenyl)-1H-pyrrolo[2,3-b]pyridine-6-yl)cyclopropanecarboxamide]",20 to 200

# Other lines, results leading:
row,IC50 [nM],SMILES
1,20 to 200,"CCCS(=O)(=O)Nc1ccc(-c2nc(NC(=O)C3CC3)nc3[nH]ccc23)cc1F [Example 206, N-(4-(3-fluoro-4-(propylsulfonamido)phenyl)-7H-pyrrolo[2,3-d]pyrimidin-2-yl)cyclopropanecarboxamide]"
2,< 20,"O=C(Nc1cc(-c2ccc(NS(=O)(=O)N3CCOCC3)cc2)c2cc[nH]c2n1)C1CC1 [Example 214, N-(4-(4-(morpholine-4-sulfonamido)phenyl)-1H-pyrrolo[2,3-b]pyridin-6-yl)cyclopropanecarboxamide]"
3,< 20,"CCN(C)S(=O)(=O)Nc1ccc(-c2cc(NC(=O)C3CC3)nc3[nH]ccc23)cc1 [Example 215, N-(4-(4-((N-ethyl-N-methylsulfamoyl)amino)phenyl)-1H-pyrrolo[2,3-b]pyridin-6-yl)cyclopropanecarboxamide]"
4,20 to 200,"CCN(CC)S(=O)(=O)Nc1ccc(-c2cc(NC(=O)C3CC3)nc3[nH]ccc23)cc1 [Example 216, N-(4-(4-((N,N-diethylsulfamoyl)amino)phenyl)-1H-pyrrolo[2,3-b]pyridin-6-yl)cyclopropanecarboxamide]"
5,< 20,"CN(C1CC1)S(=O)(=O)Nc1ccc(-c2cc(NC(=O)C3CC3)nc3[nH]ccc23)cc1 [Example 217, N-(4-(4-((N-cyclopropyl-N-methylsulfamoyl)amino)phenyl)-1H-pyrrolo[2,3-b]pyridin-6-yl)cyclopropanecarboxamide]"
6,< 20,"O=C(Nc1cc(-c2ccc(NS(=O)(=O)N3CCCC3)cc2)c2cc[nH]c2n1)C1CC1 [Example 218, N-(4-(4-(pyrrolidine-1-sulfonamido)phenyl)-1H-pyrrolo[2,3-b]pyridin-6-yl)cyclopropanecarboxamide]"
7,< 20,"O=C(Nc1cc(-c2ccc(NS(=O)(=O)N3CCCCC3)cc2)c2cc[nH]c2n1)C1CC1 [Example 219, N-(4-(4-(piperidine-1-sulfonamido)phenyl)-1H-pyrrolo[2,3-b]pyridin-6-yl)cyclopropanecarboxamide]"
8,20 to 200,"CC1CN(S(=O)(=O)Nc2ccc(-c3cc(NC(=O)C4CC4)nc4[nH]ccc34)cc2)CC(C)O1 (stereo not shown) [Example 220, N-(4-(4-((2,6-dimethylmorpholine)-4-sulfonamido)phenyl)-1H-pyrrolo[2,3-b]pyridin-6-yl)cyclopropanecarboxamide]"
9,< 20,"O=C(Nc1cc(-c2ccc(NS(=O)(=O)N3CCCCC3)c(F)c2)c2cc[nH]c2n1)C1CC1 [Example 224, N-(4-(3-fluoro-4-(piperidine-1-sulfonamido)phenyl)-1H-pyrrolo[2,3-b]pyridin-6-yl)cyclopropanecarboxamide]"
10,< 20,"O=C(Nc1cc(-c2ccc(NS(=O)(=O)N3CCCC3)c(F)c2)c2cc[nH]c2n1)C1CC1 [Example 225, N-(4-(3-fluoro-4-(pyrrolidine-1-sulfonamido)phenyl)-1H-pyrrolo[2,3-b]pyridin-6-yl)cyclopropanecarboxamide]"
11,< 20,"O=C(Nc1cc(-c2ccc(NS(=O)(=O)N3CCOCC3)c(F)c2)c2cc[nH]c2n1)C1CC1 [Example 226, N-(4-(3-fluoro-4-(morpholine-4-sulfonamido)phenyl)-1H-pyrrolo[2,3-b]pyridin-6-yl)cyclopropanecarboxamide]"
12,< 20,"Cc1cc(NS(=O)(=O)N(C)CC(F)(F)F)ccc1-c1cc(NC(=O)C2CC2)nc2[nH]ccc12 [Example 228, N-(4-(2-methyl-4-((N-methyl-N-(2,2,2-trifluoroethyl)sulfamoyl)amino)phenyl)-1H-pyrrolo[2,3-b]pyridin-6-yl)cyclopropanecarboxamide]"
13,< 20,"O=C(Nc1cc(-c2ccc(NS(=O)(=O)N3CCS(=O)(=O)CC3)cc2)c2cc[nH]c2n1)C1CC1 [Example 229, N-(4-(4-((1,1-dioxidothiomorpholine)-4-sulfonamido)phenyl)-1H-pyrrolo[2,3-b]pyridin-6-yl)cyclopropanecarboxamide]"
14,< 20,"CS(=O)(=O)N1CCN(S(=O)(=O)Nc2ccc(-c3cc(NC(=O)C4CC4)nc4[nH]ccc34)cc2)CC1 [Example 230, N-(4-(4-((4-(methylsulfonyl)piperazine)-1-sulfonamido)phenyl)-1H-pyrrolo[2,3-b]pyridin-6-yl)cyclopropanecarboxamide]"
15,< 20,"O=C(Nc1cc(C2=CCC(NS(=O)(=O)N3CCOCC3)CC2)c2cc[nH]c2n1)C1CC1 (stereo not shown) [Example 231, N-(4-(4-(morpholine-4-sulfonamido)cyclohex-1-en-1-yl)-1H-pyrrolo[2,3-b]pyridin-6-yl)cyclopropanecarboxamide]"
